The structures appear in SMILES notation. Where a name gives a salt, the structure may show the parent alone.

Usually Ki stands for the dissociation constant of the complex between target and ligand, obtained from inhibition or displacement. Read a high Ki as weaker binding. In general, inhibition refers to the drop in the measured response relative to a control, in per cent.

human MCH-1 receptor, sequence (Q99705 whole entry): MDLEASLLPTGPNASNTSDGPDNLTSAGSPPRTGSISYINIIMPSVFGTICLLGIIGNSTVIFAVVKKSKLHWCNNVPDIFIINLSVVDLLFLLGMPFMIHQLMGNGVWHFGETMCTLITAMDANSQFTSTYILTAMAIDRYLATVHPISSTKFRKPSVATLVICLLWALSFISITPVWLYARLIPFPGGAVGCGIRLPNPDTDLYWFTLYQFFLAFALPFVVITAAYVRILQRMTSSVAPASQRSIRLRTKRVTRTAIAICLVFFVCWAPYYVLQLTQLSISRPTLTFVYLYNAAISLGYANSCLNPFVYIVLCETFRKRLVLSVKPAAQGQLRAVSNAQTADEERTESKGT

One test has as its target human MCH-1 receptor (Homo sapiens, UniProt Q99705). The experiment in a line: Binding assay for human melanin-concentrating hormone (MCH-1) receptor, radioligand displacement on CHO-K1 cell membranes.
Details: not given
(In a radioligand displacement assay an active substance lowers the binding of a labelled ligand.)
Take `O=c1cc(OCc2ccc(F)cn2)ccn1-c1ccc2oc3c(c2c1)CCNCC3` [Example 79, 4-((5-Fluoropyridin-2-yl)methoxy)-1-(2,3,4,5-tetrahydro-1H-benzofuro[2,3-d]azepin-9-yl)pyridin-2(1H)-one hydrochloride]: the inhibition constant (Ki) was found to be 78 nM.
Still for that read-out and setting: the value for `O=c1cc(OCc2ccc(F)cn2)ccn1-c1ccc2c3c(oc2c1)CCN1CCCC31` (centres unmarked) [Example 80, 4-((5-Fluoropyridin-2-yl)methoxy)-1-(1,2,3,5,6,11c-hexahydrobenzofuro[2,3-g]indolizin-9-yl)pyridin-2(1H)-one hydrochloride] was 8.3 nM; that for `CC(C)N1CCCc2oc3cc(-n4ccc(OCc5cccc(C(F)(F)F)n5)cc4=O)ccc3c2C1` [Example 81, 1-(2-Isopropyl-2,3,4,5-tetrahydro-1H-benzofuro[3,2-c]azepin-8-yl)-4-((6-(trifluoromethyl)pyridin-2-yl)methoxy)pyridin-2(1H)-one hydrochloride] was 62 nM; that for `CN1CCCc2oc3cc(-n4ccc(-c5ccc(C(F)(F)F)cc5)cc4=O)ccc3c2C1` [Example 82, 1-(2-Methyl-2,3,4,5-tetrahydro-1H-benzofuro[3,2-c]azepin-8-yl)-4-(4-(trifluoromethyl)phenyl)pyridin-2(1H)-one hydrochloride] was 8.2 nM.
`O=C1CN(CCc2ccc(F)cn2)CCN1c1ccc2c3c(oc2c1)CCCNC3` [Example 83, 4-(2-(5-Fluoropyridin-2-yl)ethyl)-1-(2,3,4,5-tetrahydro-1H-benzofuro[3,2-c]azepin-8-yl)piperazin-2-one hydrochloride] came in with a Ki of 52 nM.
Same read-out and setting: the value for `CN1CCc2oc3cc(-n4ccc(OCc5ccc(C(F)(F)F)nc5)cc4=O)ccc3c2CC1` [Example 84, 1-(3-Methyl-2,3,4,5-tetrahydro-1H-benzofuro[2,3-d]azepin-8-yl)-4-((6-(trifluoromethyl)pyridin-3-yl)methoxy)pyridin-2(1H)-one hydrochloride] was 29 nM; that for `Cc1ccc(COc2ccn(-c3ccc4c5c(oc4c3)CCCN(C)C5)c(=O)c2)cn1` [Example 85, 1-(2-Methyl-2,3,4,5-tetrahydro-1H-benzofuro[3,2-c]azepin-8-yl)-4-((6-methylpyridin-3-yl)methoxy)pyridin-2(1H)-one hydrochloride] was 116 nM; that for `CN1CCCc2oc3cc(-n4ccc(OCc5ccc(C(F)(F)F)nc5)cc4=O)ccc3c2C1` [Example 86, 1-(2-Methyl-2,3,4,5-tetrahydro-1H-benzofuro[3,2-c]azepin-8-yl)-4-((6-(trifluoromethyl)pyridin-3-yl)methoxy)pyridin-2(1H)-one hydrochloride] was 53 nM.
The same measure, in the same setting: the value for `O=C1CN(CCc2ccc(Cl)cc2)CCN1c1ccc2c3c(oc2c1)CCNC3` [Example 87, 4-(4-Chlorophenethyl)-1-(1,2,3,4-tetrahydrobenzofuro[3,2-c]pyridin-7-yl)piperazin-2-one hydrochloride] was 58 nM.
On the same count and under the same terms, under `O=C1CN(CCc2ccc(Cl)cc2)CCN1c1ccc2c3c(oc2c1)CCCNC3` [Example 89, 4-(4-Chlorophenethyl)-1-(2,3,4,5-tetrahydro-1H-benzofuro[3,2-c]azepin-8-yl)piperazin-2-one hydrochloride] stands 17 nM; under `O=C1CN(CCc2ccc(Cl)cn2)CCN1c1ccc2c3c(oc2c1)CCCNC3` [Example 90, 4-(2-(5-Chloropyridin-2-yl)ethyl)-1-(2,3,4,5-tetrahydro-1H-benzofuro[3,2-c]azepin-8-yl)piperazin-2-one hydrochloride], 19 nM; under `O=c1cc(OCc2ccccc2)ccn1-c1ccc2c3c(oc2c1)CCN(CCF)C3` [Example 92, 4-(Benzyloxy)-1-(2-(2-fluoroethyl)-1,2,3,4-tetrahydrobenzofuro[3,2-c]pyridin-7-yl)pyridin-2(1H)-one hydrochloride], 25 nM.
`CN1CCCc2oc3cc(N4CCN(CCc5ccc(Cl)cc5)CC4=O)ccc3c2C1` [Example 93, 4-(4-Chlorophenethyl)-1-(2-methyl-2,3,4,5-tetrahydro-1H-benzofuro[3,2-c]azepin-8-yl)piperazin-2-one hydrochloride] displayed a Ki of 69 nM.
The same measure, in the same setting: under `CN1CCCc2oc3cc(N4CCN(CCc5ccc(Cl)cn5)CC4=O)ccc3c2C1` [Example 94, 4-(2-(5-Chloropyridin-2-yl)ethyl)-1-(2-methyl-2,3,4,5-tetrahydro-1H-benzofuro[3,2-c]azepin-8-yl)piperazin-2-one hydrochloride] stands 103 nM; under `CC(C)N1CCCc2oc3cc(N4CCN(CCc5ccc(Cl)cc5)CC4=O)ccc3c2C1` [Example 96, 4-(4-Chlorophenethyl)-1-(2-isopropyl-2,3,4,5-tetrahydro-1H-benzofuro[3,2-c]azepin-8-yl)piperazin-2-one hydrochloride], 150 nM; under `O=C1CN(CCc2ccc(Cl)cn2)CCN1c1ccc2c3c(oc2c1)CCNCC3` [Example 98, 4-(2-(5-Chloropyridin-2-yl)ethyl)-1-(2,3,4,5-tetrahydro-1H-benzofuro[2,3-d]azepin-8-yl)piperazin-2-one hydrochloride], 153 nM.
In the case of `O=C1CN(CCc2ccc(Cl)cc2)CCN1c1ccc2c3c(oc2c1)CCNCC3` [Example 99, 4-(4-Chlorophenethyl)-1-(2,3,4,5-tetrahydro-1H-benzofuro[2,3-d]azepin-8-yl)piperazin-2-one hydrochloride], the affinity, expressed as Ki, was 98 nM.
On the same count and under the same terms, the value for `O=c1cc(CCc2ccc(F)cn2)ccn1-c1ccc2c3c(oc2c1)CCCNC3` [Example 100, 4-(2-(5-Fluoropyridin-2-yl)ethyl)-1-(2,3,4,5-tetrahydro-1H-benzofuro[3,2-c]azepin-8-yl)pyridin-2(1H)-one hydrochloride] was 8.1 nM.
On the same count and under the same terms, the value for `O=c1nc(CCc2ccc(Cl)cn2)ccn1-c1ccc2c3c(oc2c1)CCCNC3` [Example 103, 4-(2-(5-Chloropyridin-2-yl)ethyl)-1-(2,3,4,5-tetrahydro-1H-benzofuro[3,2-c]azepin-8-yl)pyrimidin-2(1H)-one hydrochloride] was 8 nM; that for `O=c1cc(-c2ccc(C(F)(F)F)nn2)ccn1-c1ccc2c3c(oc2c1)CCCNC3` [Example 106, 1-(2,3,4,5-Tetrahydro-1H-benzofuro[3,2-c]azepin-8-yl)-4-(6-(trifluoromethyl)pyridazin-3-yl)pyridin-2(1H)-one hydrochloride] was 199 nM.
`O=c1cc(CCc2ccc(Cl)cn2)ccn1-c1ccc2c3c(oc2c1)CCCNC3` [Example 107, 4-(2-(5-Chloropyridin-2-yl)ethyl)-1-(2,3,4,5-tetrahydro-1H-benzofuro[3,2-c]azepin-8-yl)pyridin-2(1H)-one hydrochloride] returned a Ki of 4.2 nM.
`O=c1cc(CCc2ccccc2)ccn1-c1ccc2c3c(oc2c1)CCCNC3` [Example 108, 4-Phenethyl-1-(2,3,4,5-tetrahydro-1H-benzofuro[3,2-c]azepin-8-yl)pyridin-2(1H)-one hydrochloride] returned a Ki of 3.2 nM.
The same measure, in the same setting: the value for `O=c1cc(OCc2ccc(C(F)(F)F)cn2)ccn1-c1ccc2c3c(oc2c1)CCNC3` [Example 115, 1-(1,2,3,4-Tetrahydrobenzofuro[3,2-c]pyridin-7-yl)-4-((5-(trifluoromethyl)pyridin-2-yl)methoxy)pyridin-2(1H)-one hydrochloride] was 13 nM.
Compound `O=c1cc(OCc2ccccc2)ccn1-c1ccc2sc3c(c2c1)CCNCC3` [Example 117, 4-(Benzyloxy)-1-(2,3,4,5-tetrahydro-1H-benzo[4,5]thieno[2,3-d]azepin-9-yl)pyridin-2(1H)-one hydrochloride] showed a Ki of 103 nM.
`O=C1CN(CCc2ccc(Cl)cn2)CCN1c1ccc2c3c(sc2c1)CNCC3` [Example 121, 4-(2-(5-Chloropyridin-2-yl)ethyl)-1-(1,2,3,4-tetrahydrobenzothieno[2,3-c]pyridin-7-yl)piperazin-2-one hydrochloride] had a Ki of 44 nM.
The same measure, in the same setting: under `O=c1cc(OCc2ccccc2)ccn1-c1ccc2c3c(sc2c1)CCCNC3` [Example 122, 4-(Benzyloxy)-1-(2,3,4,5-tetrahydro-1H-benzothieno[3,2-c]azepin-8-yl)pyridin-2(1H)-one hydrochloride] stands 3.3 nM.
`O=c1cc(OCc2ccc(Cl)cn2)ccn1-c1ccc2c3c(sc2c1)CCCNC3` [Example 123, 4-((5-Chloropyridin-2-yl)methoxy)-1-(2,3,4,5-tetrahydro-1H-benzothieno[3,2-c]azepin-8-yl)pyridin-2(1H)-one hydrochloride] registered an inhibitory constant (Ki) of 2.9 nM.

Still in this test, the particulars now being: read-out: MCH1 % inhibition @ 1 uM.
As for `CN1CCCc2oc3cc(N4CCN(CCc5ccc(F)cn5)CC4=O)ccc3c2C1` [Example 95, 4-(2-(5-Fluoropyridin-2-yl)ethyl)-1-(2-methyl-2,3,4,5-tetrahydro-1H-benzofuro[3,2-c]azepin-8-yl)piperazin-2-one hydrochloride], the inhibition at 1 µM was determined as 62%.
On the same count and under the same terms, under `CC(C)N1CCCc2oc3cc(N4CCN(CCc5ccc(Cl)cn5)CC4=O)ccc3c2C1` [Example 97, 4-(2-(5-Chloropyridin-2-yl)ethyl)-1-(2-isopropyl-2,3,4,5-tetrahydro-1H-benzofuro[3,2-c]azepin-8-yl)piperazin-2-one hydrochloride] stands 66%.
The same measure, in the same setting: the value for `O=c1cc(OCc2ccc(F)cn2)ccn1-c1ccc2oc3c(c2c1)CCCNC3` [Example 109, 4-((5-Fluoropyridin-2-yl)methoxy)-1-(2,3,4,5-tetrahydro-1H-benzofuro[2,3-c]azepin-7-yl)pyridin-2(1H)-one hydrochloride] was 12%.
On the same count and under the same terms, under `O=c1cc(OCc2ccccc2)ccn1-c1ccc2oc3c(c2c1)CCCNC3` [Example 110, 4-(Benzyloxy)-1-(2,3,4,5-tetrahydro-1H-benzofuro[2,3-c]azepin-7-yl)pyridin-2(1H)-one hydrochloride] stands 12%; under `O=c1cc(OCc2ccccc2)ccn1-c1ccc2sc3c(c2c1)CCCNC3` [Example 116, 4-(Benzyloxy)-1-(2,3,4,5-tetrahydro-1H-benzo[4,5]thieno[2,3-c]azepin-7-yl)pyridin-2(1H)-one hydrochloride], 37%.

For the origin of these results see patent US20140163012A1, “PYRIDO-/AZEPINO-BENZOFURAN AND PYRIDO-/AZEPINO-BENZOTHIOPHENE MCH-1 ANTAGONISTS, METHODS OF MAKING, AND USE THEREOF” (Albany Molecular Research, Inc., priority 2012, published 2014).
